Measurements taken from patent publication US4636498A, “Formulation of antiinflammatory drugs” (Pfizer Inc., priority 1985, dated 1987).
“And” between values parts separate entries of the source, which are not always exact repeats. Equal entries are not always repeated. Structures can show the parent of a compound that is named as a salt. Where two headings read alike, the source gives them in different places.

Tests used:
[1] = tested on: indomethacin-induced gastric lesions; assay: Prevention of indomethacin-induced gastric lesions in rats; format: in vivo, rat (male, CD strain); settings: for ED50: Rattus norvegicus, po, mg/kg of free base, read-out: ID50 (the source's name)
Excerpt: Rats for testing were ordered to arrive the week before being tested, and acclimated that first week. Male, CD strain rats were used. By ordering at 100-125 grams, body weights during the second week generally ranged from 150-200 grams. Rats were fasted the day before the test, with food removed from the gang cages no later than 4 p.m. Following an overnight fast a loss of 15-20 grams body weight was anticipated, so volumes of test solutions required for the following day could be estimated. Water was allowed ad lib overnight and during the test itself. On the test day both oral and intraperitoneal dosing was done with volumes of 4.0 ml/kg. Therefore, by knowing approximate body weights (and therefore required volumes) as well as drug doses (mg/kg) to be used, the amount of antiulcer drug and indomethacin needed was determined and preweighed into test tubes the day before the test. The antiulcer drugs to be tested, in the form of their dihydrochloride salts, were put into solution or suspended. Distilled water was normally the vehicle used. Indomethacin was suspended in saline and homogenized with a small drop of Tween 80 (polysorbate 80) to prevent aggregation of particles. The indomethacin will not stay suspended in the saline, and it is critical that the test tube be well vortexed and the drug resuspended before each dose is drawn into a syringe. A random sample of the rats to be tested (usually about 20% of the total test group) was used to determine average body weight of the group. […] The rats were removed from the gang cage, given the test drug or vehicle p.o., and placed in individual cages. The timing of antiulcer drug dosing relative to the indomethacin challenge varied depending on the specific protocol used. As a typical test consisted of 7 groups of 7 rats each, a predose time of 45 minutes was conveniently used. This allowed about one minute to orally dose each rat. Indomethacin was administered i.p. after the predose time had elapsed. In the typical test mentioned above, this required going back to the first rat and beginning indomethacin injections as soon as the drug dosing was completed. To keep the predose time consistent, rats were also given the indomethacin at a rate of about one per minute. If the test compound was not expected to have a long duration of action, it was desirable to administer a second dose of antiulcer drug during the test. The typical time between indomethacin administration and sacrifice is 6.5 hours. […] Of course, control animals were also dosed with vehicle at this time. The rats were sacrificed 6.5 hours after administration of the indomethacin. The stomachs were excised, opened along the greater curvature, and rinsed under running water. Lightly rubbing the mucosa while holding it in the stream of water helped to remove some mucus and large clots of blood, but vigorous rubbing was avoided as it may dislodge blood from the indomethacin-induced hemorrhagic erosions, making the erosions extremely difficult to see. Next the stomachs were placed flat, mucosa side up, on a tray covered with saline-soaked towels. The lesions were then counted, or the stomachs held overnight for examination the following day. If they were stored overnight, the stomachs were first moistened with saline and placed in a polyethylene bag and in a refrigerator. The indomethacin-induced gastric lesions usually appeared as dark brown or black colored erosions in the corpus (the acid-secreting portion) of the stomach. The dark coloration is caused by the action of the gastric acid on blood within the erosion. Lesions were either punctate or linear in nature. Quantitative determination of lesion size has shown that the average lesion length is about 1 mm. Regardless of size, each individual lesion was counted as one. However, if one group of animals obviously had lesions of a different nature than the controls, this fact was recorded. […]

ethanol-induced ulcers = assay: Inhibition of ethanol-induced ulceration in rats; format: in vivo, rat (male); settings: as dihydrobromide salt
Protocol: The antiulcer activity of the products of Examples 9 and 10 was also determined by an ethanol-induced rat ulcer assay. In this test, overnight fasted male rats are given drug (at 30 or 3 mg/kg) or water orally fifteen minutes prior to an orally administered dose of absolute ethanol (1.0 ml). One hour after the ethanol challenge the animals (8/group) are killed and the stomachs examined for the presence of lesions. After sacrifice the abdomen is opened and a locking hemostat placed at the pylorus. Six ml of a 4% solution of formaldehyde was injected into the stomach with a gastric feeding tube and a second locking hemostat was used to seal the esophagus. The stomach was removed, opened along the greater curvature and examined for ulceration.
The scoring system used to quantitate the ethanol-induced lesions is given below.
For each group of animals an ulcer index is calculated as follows: [formula]
The percentage inhibition of ulcers is calculated as follows: [formula]

[2] = tested on: adjuvant-induced arthritis; assay: Adjuvant-induced arthritis in the rat (inhibition of paw edema); format: in vivo, rat (male Wistar-Lewis); settings: for ED50: Rattus norvegicus, po, piroxicam alone, linear regression analysis; for % Inhibition of Lesions, Primary: day 4, injected paw; for % Inhibition of Lesions, Secondary: day 16, non-injected paw
Protocol: Adjuvant arthritis was induced in adult male Wistar-Lewis rats weighing 250-270 grams each (Charles River Breeding Laboratories, Kingston, N.Y.) by a single subplantar injection of 1 mg of Mycobacterium butyricum (Difco Laboratories, Lot #0640-33) suspended in 0.1 ml mineral oil as described by Walz et al. (Proc. Soc. Exptl. Biol. Med., 136: 907-910, 1971). Seven rats were used in each group. Orally administered drugs were dissolved in water and dilute sodium hydroxide was added as necessary to ensure solution; control groups received only water. After neutralization of the solutions to pH 7.0, a volume of 10 ml/kg body weight was given by intubation with a blunt end, 18-gauge needle. Doses of each drug were given daily starting 1 day before the injection of adjuvant and continuing until 16 days after the induction of the arthritic lesion.
The initial hindpaw volumes (Vi) were measured on the day of adjuvant injection and the resultant swelling was determined on the injected paw (Vf - Vi) on the 4th day following the adjuvant injection. This was considered to be the primary response or lesion. The swelling (Vf - Vi) measured 16 days after adjuvant injection on the contralateral, non-injected hindpaw constituted the secondary response or lesion. The rats were weighed at the start of the experiments as well as 4 and 16 days after the induction of the disease. Percent inhibition of edema was calculated according to the following formula: [formula] […] This shift represents a 5 fold increase in the potency of piroxicam.

[3] = tested on: gastric lesions induced by the ethanolamine salt of piroxicam; assay: Gastric lesions in rats induced by the ethanolamine salt of piroxicam; format: in vivo, rat; settings: for ED50: Rattus norvegicus, po, 6.5 h, linear regression analyses
Protocol: (§1) Adult male "specific pathogen free" rats weighing 140-160 grams of the CD strain (Sprague-Dawley) were obtained from Charles River Breeding Laboratories (Kingston, N.Y.). The animals were acclimated for approximately one week and tested when they reached a body weight of 200-225 grams. The rats were fasted for 16 hours and randomized into groups consisting of 8 to 10 animals which were normalized with regard to their average body weight. Gastric ulcers were induced in the animals by orally dosing the animals with a single 100 mg/kg dose of piroxicam solution containing the drug dissolved in 2 ml 0.1% methylcellulose in water (pH=6.8). Those animals receiving 2-guanidino-4-(2-methyl-4-imidazolyl)thiazole (0.3, 1.0, 3.3 or 10.0 mg/kg as the dihydrochloride salt) separately received that drug, dissolved in an additional 2 ml of the same medium, at about the same time. Six and one-half hours later, the animals were sacrificed by cervical dislocation and autopsied. The stomachs were surgically removed, dissected along the greater curvature and rinsed with cold water. The stomachs were individually scored for both linear and punctate lesions. The total number of lesions was used for scoring purposes. The data obtained from each group of rats was analyzed after calculation of the mean number +/- the standard error of total gastric lesions. The values obtained were also compared to the controls which received only piroxicam by the two-tailed Student's t-test for nonpaired data.
According to the preceding Example, gastric ulcers were induced by a single dose of 100 mg of the ethanolamine salt of piroxicam. Test groups received 0.3, 1.0 and 3.3 mg/kg doses of 2-guanidino-4-(2-methyl-4-imidazolyl)thiazole.
This test was repeated, using 120 mg of the ethanolamine salt of piroxicam to induce ulcers.
According to Examples 2 and 3, gastric ulcers were induced by a single dose of 120 mg of the ethanolamine salt of piroxicam. Test groups received 0.03, 0.10 and 0.33 mg/kg doses of 2-(N-pentyl-N'-guanidino)-4-(2-methyl-4-imidazolyl)thiazole dihydrochloride.

[4] = tested on: piroxicam-induced gastric lesions; assay: Piroxicam-induced gastric lesions in rats; format: in vivo, rat (male, CD strain, Sprague-Dawley)
Protocol: as §1, with “The values obtained were also compared to the controls which received only piroxicam by the two-tailed Student's t-test for nonpaired data.” left out

[5] = particularly with indomethacin; cited from earlier work
[6] = Compound A oral dose 10.0 mg/kg

Compound: Cc1nc(-c2csc(N=C(N)NCc3ccccc3)n2)c[nH]1 [Compound C, 2-(N-Benzyl-N'-guanidino)-4-(2-methyl-4-imidazolyl)thiazole Dihydrochloride]
- ED50 ([1]; two drug doses): 4.4 mg/kg
- Inhibition of ethanol-induced ulceration (ethanol-induced ulcers; oral dose 3 mg/kg): at least 40%
- Inhibition of ethanol-induced ulceration (ethanol-induced ulcers; oral dose 30 mg/kg): at least 77%

Compound: CN1C(C(=O)Nc2ccccn2)=C(O)c2ccccc2S1(=O)=O [Piroxicam]
- ED50 ([2]; 96 h, read-out: ED50 against primary lesions): 2.6 mg/kg
- ED50 ([2]; 384 h, read-out: ED50 against secondary lesions): 0.45 mg/kg
- % Inhibition of Lesions, Primary ([2]; piroxicam oral dose 0.10 mg/kg): 29 (4) %
- % Inhibition of Lesions, Secondary ([2]; piroxicam oral dose 0.10 mg/kg, 0.1 mg/kg): 26 (2) % and 26%
- % Inhibition of Lesions, Primary ([2]; piroxicam oral dose 0.33 mg/kg): 33 (8) %
- % Inhibition of Lesions, Secondary ([2]; piroxicam oral dose 0.33 mg/kg, 0.33 mg/kg): 43 (4) % and 43%
- % Inhibition of Lesions, Primary ([2]; piroxicam oral dose 1.00 mg/kg): 45 (7) %
- % Inhibition of Lesions, Secondary ([2]; piroxicam oral dose 1.00 mg/kg, 1 mg/kg): 64 (3) % and 64%

Compound: N=C(N)Nc1nc(-c2c[nH]cn2)cs1 [Compound D, 2-guanidino-4-(4-imidazolyl)thiazole]
- ED50 ([1]; single drug dose): 7.5 mg/kg
- ED50 ([1]; two drug doses): 2 mg/kg

Compound: CCCCCNC(N)=Nc1nc(-c2c[nH]c(C)n2)cs1 [Example 10, 4-(2-Methyl-4-imidazolyl)-2-(N-pentyl-N'-guanidino)thiazole Dihydrochloride]
- Reduction in gastric lesions induced by the ethanolamine salt of piroxicam (in words) ([3]; Example 13, 0.03-0.33 mg/kg): significant reduction in gastric lesions
- ED50 ([3]; Example 13, piroxicam ethanolamine salt 120 mg): 0.1 mg/kg
- Inhibition of ethanol-induced ulceration (ethanol-induced ulcers; oral dose 3 mg/kg): at least 40%
- Inhibition of ethanol-induced ulceration (ethanol-induced ulcers; oral dose 30 mg/kg): at least 77%

Compound: CCCCCCNc1nc(-c2csc(NC(=N)N)n2)c[nH]1 [Compound B, 2-Guanidino-4-(2-hexylamino-4-imidazolyl)thiazole]
- ED50 ([1]; two drug doses): 10.5 mg/kg

Compound: Cc1nc(-c2csc(NC(=N)N)n2)c[nH]1.Cl.Cl [Compound A, 2-Guanidino-4-(2-methyl-4-imidazolyl)thiazole Dihydrochloride]
- ED50 ([1]; single drug dose, obtained by extrapolation): 1.4 mg/kg
- ED50 ([1]; two drug doses, obtained by extrapolation): 1.5 mg/kg
- Reduction in lesion number ([1]; lowest dose tested, 2.2 mg/kg): 63%
- Reduction of piroxicam-induced gastric lesions (in words) ([4]; 0.3-10 mg/kg p.o.): significantly reduced piroxicam-induced gastric lesions
- ED50 ([4]; Rattus norvegicus, po, 6.5 h, linear regression analyses, piroxicam 100 mg/kg): 0.32 mg/kg
- Reduction in gastric lesions induced by the ethanolamine salt of piroxicam (in words) ([3]; 0.3-3.3 mg/kg, piroxicam ethanolamine salt 100 mg): significant reduction in gastric lesions
- ED50 ([3]; piroxicam ethanolamine salt 100 mg): 0.88 mg/kg
- ED50 ([3]; piroxicam ethanolamine salt 120 mg): 0.3 mg/kg
- % Inhibition of Lesions, Primary ([2]; Compound A oral dose 1.0 mg/kg): 0 (6) %
- % Inhibition of Lesions, Secondary ([2]; Compound A oral dose 1.0 mg/kg): 3 (3) %
- % Inhibition of Lesions, Primary ([2]; Compound A oral dose 3.3 mg/kg): 0 (3) %
- % Inhibition of Lesions, Secondary ([2]; Compound A oral dose 3.3 mg/kg): 28 (4) %
- % Inhibition of Lesions, Primary [2, 6]: 2 (2) %
- % Inhibition of Lesions, Secondary [2, 6]: 27 (3) %
- Activity against secondary lesions (in words) ([2]; compound alone): significant activity against secondary lesions
- Activity for primary lesions (in words) ([2]; compound alone): no significant activity
- ED50 against secondary lesions (in words) ([2]; compound alone): no reliable ED50 could be extrapolated

Compound: N[C@@](CF)(Cc1c[nH]cn1)C(=O)O [alphafluoromethylhistidine]
- Antiinflammatory activity (in words) [5]: synergistic antiinflammatory activity
